Experimental data as given in patent publication US7129073B2, “Regulation of neuronal function through metabotropic glutamate receptor signaling pathways” (The Rockefeller University, priority 2001, dated 2006).
pIC50: −log10 of the molar value. Entries after “also recorded” stand apart in the source; their conditions may differ.

Tests used:
[1] = system: CKI; test: in vitro inhibitory potency of CKI-7 towards CKI; format: biochemical
Experimental: (§1) CKI may also regulate Cdk5 kinase activity in response to mGluR receptor activation, or vice versa. To examine these possibilities, experiments were performed with a CKI inhibitor, CKI-7. The crystal structure of the catalytic domain of casein kinase I complexed with CKI-7 provided evidence that CKI-7 achieves its selectivity for CKI by hydrophobic contacts and hydrogen bonding with the isoquinoline ring (Xu, R. M. et al. 1996. Proc. Natl. Acad. Sci. USA 93:6308–6313). In in vitro studies, the inhibitory potency (IC50 values) for CKI-7 towards CKI and Cdk5/p25 was determined.

[2] = target: Cdk5/p25 (Homo sapiens, UniProt Q00535); test: in vitro inhibitory potency of CKI-7 towards Cdk5/p25; format: biochemical
Experimental: as §1

[3] = system: voltage-dependent Ca2+ channels; test: whole-cell recordings of voltage-dependent Ca2+ channels in dissociated neostriatal neurons; format: cell-based, mouse; conditions: for effect on basal Ca2+ currents / effect on the enhancement of Ca2+ currents by DHPG: CK1–7 100 μM, butyrolactone 25 μM (FIG. 6)
Experimental: Neostriatal neurons from 3- to 4-week-old mice were acutely dissociated by using procedures similar to those disclosed in Eberwine et al. (1995, Prog. Brain Res. 105:117–126). Whole-cell current recordings used standard voltage-clamp techniques. The internal solution consisted of 180 mM N-methyl-D-glucamine, 40 mM Hepes, 4 mM MgCl2, 0.5 mM 1,2-bis(2-aminophenoxy)ethane-N,N,N′,N′-tetraacetate, 12 mM phosphocreatine, 2 mM Na2ATP, 0.2 mM Na3GTP, 0.1 mM leupeptin (pH 7.2–7.3), 265–270 mosm/liter. The external solution consisted of 135 mM NaCl, 20 mM CsCl, 1 mM MgCl2, 10 mM Hepes, 0.001 mM tetrodotoxin, 5 mM BaCl2, 10 mM glucose (pH 7.3), 300–305 mosm/liter. Recordings were obtained with an Axon Instruments 200B patch clamp amplifier that was controlled and monitored with an IBM PC running PCLAMP™ (v. 8) with a DigiData 1320 series interface (Axon Instruments, Foster City, Calif.). Electrode resistances were typically 2–4 MΩ in the bath. After seal rupture, series resistance (4–10 MΩ) was compensated (70–90%) and periodically monitored. Drugs were applied with a gravity-fed “sewer pipe” system. The array of application capillaries was positioned 250 μm from the cell under study. Solution changes were effected by altering the position of the array with a DC drive system controlled by a microprocessor-based controller (Newport-Klinger, Irvine, Calif.). Data analyses were performed with AXOGRAPH™ (Axon Instruments), […]™ (Albeck Software, Reading, Pa.), and […]™ (Abacus Concepts, Berkeley, Calif.).

[4] = system: MM2-CK1ε; test: kinase activity of Myc-MM2-CK1ε mutant immunoprecipitated from transfected N2a cells; format: cell-based; conditions: DHPG 100 μM 2 min, in the absence or presence of cyclosporin A
Experimental: Neuroblastoma N2a cells were cultured to 50–60% confluence in DMEM containing 5% fetal bovine serum. Four μg of the expression plasmid for HA-CK1ε or myc-MM2-CK1ε was transfected into N2a cells in 100 mm dishes using FuGENE6™. Twenty-four hours after transfection, cells were incubated at room temperature in phosphate-buffered Kreb's-Henseleit solution (Sigma) for 10 min and then with or without inhibitors for 30 min before treating with (S)-3,5-DHPG, for 2 min. Cells were then lysed in 1 ml of radio-immunoprecipitation (RIPA) buffer containing 1% NP-40, 150 mM NaCl, 0.1% SDS, 50 mM Tris, pH 8.0, 5 mM Na3VO4, 20 mM NaF, 20 mM β-glycerol-phosphate and protease inhibitors. Lysates were centrifuged at 10,000 g, and supernatants were used for immunoprecipitation and kinase assay.
For immunoprecipitation of CK1ε from N2a cells, lysates (1 mg of total protein) were precleared with 5 μl of mouse IgG (ICN) and 50 μl of protein A agarose for 30 min. Five μl (approximately 2 μg) of anti-HA or anti-myc antibody was added and samples were incubated for 1 h at 4° C. Five μl of anti-mouse rabbit IgG and 50 μl of protein A agarose were then added for 45 min. […]
CK1 assays were performed in a 30 μl assay volume with 2 μg of purified DARPP-32, 500 μM ATP and 5 μCi γ-^32P-ATP. […] Results were quantified using a Molecular Dynamics PHOSPHORIMAGER™. […]

[5] = system: HA-CK1ε; test: 32P metabolic labeling and two-dimensional phosphopeptide mapping of HA-CK1ε in N2a cells; format: cell-based; conditions: DHPG 2 or 4 min; returned to 0 min level at ten min
[6] = system: MM2-CK1ε; test: phosphopeptide mapping of MM2-CK1ε in N2a cells; format: cell-based; conditions: DHPG 2 min
Experimental: Twenty-four hours after transfecting N2a cells with CK1ε expression plasmids, cells were incubated in 200 μCi/ml (NEN) ^32P-inorganic phosphate and phosphate-free serum-free DMEM for 2 h. […] Cells were treated with DHPG for various periods of time as indicated, harvested by lysis in RIPA buffer and clarified by centrifugation at 14,000×g for 10 min. Soluble extracts containing HA- or Myc-tagged proteins were immunoprecipitated with 12CA5 or 9E10 monoclonal antibody and protein A-agarose. The immunoprecipitates were eluted from the protein A-agarose and separated by SDS-PAGE on 10% gel. Proteins were stained briefly with Coomassie Brilliant Blue, the gels were dried, and the labeled proteins were visualized by autoradiography.
Radiolabeled protein bands were excised, rehydrated, de-stained and dried in a speedvac. The gel slices were minced and rehydrated in 75 μg/ml TPCK/trypsin in 50 mM NH4CO3H (1 ml final volume) for 24 h at 37° C. The supernatant was removed from the gel slices and then lyophilized to dryness. Recovery of tryptic phosphopeptides was determined by Cerenkov counting. The two-dimensional peptide mapping method was used to separate phosphopeptides (23). Lyophilized tryptic peptides were suspended in 10 μl of electrophoresis buffer (10% acetic acid and 1% pyridine, pH 3.5) and spotted onto thin-layer cellulose plates (20×20 cm, Analtech). […]

Chain of Cdk5/p25 (Q00535 whole entry, species assumed): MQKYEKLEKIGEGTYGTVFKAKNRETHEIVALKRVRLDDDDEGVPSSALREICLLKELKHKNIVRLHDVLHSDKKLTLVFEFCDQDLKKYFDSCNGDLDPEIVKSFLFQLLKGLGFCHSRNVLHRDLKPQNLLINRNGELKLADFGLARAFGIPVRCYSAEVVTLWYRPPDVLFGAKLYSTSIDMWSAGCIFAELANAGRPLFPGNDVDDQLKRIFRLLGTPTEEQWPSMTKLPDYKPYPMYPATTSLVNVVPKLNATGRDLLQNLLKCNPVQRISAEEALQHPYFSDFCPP
Chain of Cdk5/p25 (Q15078 99-307 partner limits assumed, species assumed): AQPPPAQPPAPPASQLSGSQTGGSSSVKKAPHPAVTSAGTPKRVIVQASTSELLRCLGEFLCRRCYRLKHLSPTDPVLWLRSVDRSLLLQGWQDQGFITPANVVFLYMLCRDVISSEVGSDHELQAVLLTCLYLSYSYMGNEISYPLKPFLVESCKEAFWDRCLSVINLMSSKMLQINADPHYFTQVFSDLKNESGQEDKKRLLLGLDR

Structure (SMILES) | pIC50 [1] | pIC50 [2] | effect on basal Ca2+ currents [3] | effect on the enhancement of Ca2+ currents by DHPG ([3]; DHPG 100 μM) | effect on the enhancement of Ca2+ currents by DHPG ([3]; DHPG 100 μM, listed as CK1–7) | effect on basal Ca2+ currents ([3]; listed as CK1–7) | effect on MM2-CK1ε activity [4] | time to enhancement of Ca2+ currents ([3]; DHPG) | effect on Ca2+ currents ([3]; DHPG 100 μM, wild-type neurons) | effect of DHPG on Ca2+ channels in neurons from DARPP-32 knock-out mice ([3]; DHPG 100 μM, nine out of ten neurons) | effect on phosphorylation state of CK1ε (subset of acidic phosphopeptides) [5] | effect on phosphorylation of MM2-CK1ε [6]
NCCNS(=O)(=O)c1ccc(Cl)c2ccncc12 [CKI-7] | 4.82 | 3.70 | significant reduction | eliminated | attenuated | reduced | – | – | – | – | – | –
N[C@H](C(=O)O)c1cc(O)cc(O)c1 [DHPG, (S)-3,5-Dihydroxyphenylglycine] | – | – | – | – | – | – | no effect | ≤ 90 s | enhanced; also recorded: increased | completely eliminated; also recorded: no effect | rapid and transient dephosphorylation | no effect
